Assay results as given in patent publication US20240050428A1 (Cullgen (Shanghai), Inc., priority 2020, published 2024).
Like-named read-outs stand apart in the source and are kept apart here.

Tests used:
MV4;11 cells = experiment: Cell viability assay (CellTiter-Glo) in MV4;11 cells, alone or with gilteritinib; format: cell-based; settings: Homo sapiens, MV4;11 cells, three days, CellTiter-Glo, read-out: MV4
MOLM-13 cells = experiment: Cell viability assay (CellTiter-Glo) in MOLM-13 cells, alone or with gilteritinib; format: cell-based; settings: Homo sapiens, MOLM-13 cells, three days, CellTiter-Glo
[1] = MV4-11, 72 h, compound alone (without gilteritinib), 11 IC50
[2] = MV4-11, 72 h, with gilteritinib 10 nM, 11 IC50 gilteritinib
[3] = MOLM-13, 72 h, compound alone (without gilteritinib), read-out: MOLM-13 IC50
[4] = MOLM-13, 72 h, with gilteritinib 20 nM, read-out: MOLM-13 IC50 gilteritinib
[5] = 72 h, compound alone (without gilteritinib), 11 IC50
[6] = 72 h, with gilteritinib 10 nM, 11 IC50 gilteritinib
[7] = 72 h, compound alone (without gilteritinib), read-out: MOLM-13 IC50
[8] = 72 h, with gilteritinib 20 nM, read-out: MOLM-13 IC50 gilteritinib

Structure (SMILES)	IC50 (MV4;11 cells; [1]) [nM]	IC50 (MV4;11 cells; [2]) [nM]	IC50 (MOLM-13 cells; [3]) [nM]	IC50 (MOLM-13 cells; [4]) [nM]	IC50 (MV4;11 cells; [5]) [nM]	IC50 (MV4;11 cells; [6]) [nM]	IC50 (MOLM-13 cells; [7]) [nM]	IC50 (MOLM-13 cells; [8]) [nM]
O=C1CCC(N2C(=O)c3ccc(NCCCCn4cc(-c5cnc6ccccc6n5)cn4)cc3C2=O)C(=O)N1 (stereo not shown) [GS-360, 2-(2,6-Dioxopiperidin-3-yl)-5-((4-(4-(quinoxalin-2-yl)-1H-pyrazol-1-yl)butyl)amino)isoindoline-1,3-dione]	100 to 1000	100 to 1000	> 1000	10 to 100	–	–	–	–
O=C1CCC(N2Cc3cc(NCCCCCCn4cc(-c5cnc6ccccc6n5)cn4)ccc3C2=O)C(=O)N1 (stereo not shown) [GS-361, 3-(1-Oxo-5-((6-(4-(quinoxalin-2-yl)-1H-pyrazol-1-yl)hexyl)amino)isoindolin-2-yl)piperidine-2,6-dione]	100 to 1000	10 to 100	> 1000	10 to 100	–	–	–	–
O=C1CCC(N2C(=O)c3ccc(NCCNc4cccc(N5CCC(n6cc(-c7cnc8cccc(Br)c8n7)cn6)CC5)c4)cc3C2=O)C(=O)N1 (stereo not shown) [GS-362, 5-((2-((3-(4-(4-(8-Bromoquinoxalin-2-yl)-1H-pyrazol-1-yl)piperidin-1-yl)phenyl)amino)ethyl)amino)-2-(2,6-dioxopiperidin-3-yl)isoindoline-1,3-dione]	–	–	–	–	< 10	< 10	< 10	< 10
O=C1CCC(N2C(=O)c3ccc(N4CCC(CCCn5cc(-c6cnc7ccccc7n6)cn5)CC4)cc3C2=O)C(=O)N1 (stereo not shown) [GS-363, 2-(2,6-Dioxopiperidin-3-yl)-5-(4-(3-(4-(quinoxalin-2-yl)-1H-pyrazol-1-yl)propyl)piperidin-1-yl)isoindoline-1,3-dione]	100 to 1000	100 to 1000	> 1000	> 1000	–	–	–	–
O=C1CCC(N2C(=O)c3ccc(C4CN(CCCCn5cc(-c6cnc7ccccc7n6)cn5)C4)cc3C2=O)C(=O)N1 (stereo not shown) [GS-364, 2-(2,6-Dioxopiperidin-3-yl)-5-(1-(4-(4-(quinoxalin-2-yl)-1H-pyrazol-1-yl)butyl)azetidin-3-yl)isoindoline-1,3-dione]	> 1000	> 1000	> 1000	> 1000	–	–	–	–
O=C1CCC(N2C(=O)c3ccc(NCCCc4cccc(-n5cc(-c6cnc7ccccc7n6)cn5)c4)cc3C2=O)C(=O)N1 (stereo not shown) [GS-365, 2-(2,6-Ddioxopiperidin-3-yl)-5-((3-(3-(4-(quinoxalin-2-yl)-1H-pyrazol-1-yl)phenyl)propyl)amino)isoindoline-1,3-dione]	> 1000	> 1000	> 1000	100 to 1000	–	–	–	–
O=C1CCC(N2C(=O)c3ccc(NCCNc4cccc(N5CCC(c6ccccc6)CC5)c4)cc3C2=O)C(=O)N1 (stereo not shown) [GS-366, 2-(2,6-Dioxopiperidin-3-yl)-5-((2-((3-(4-phenylpiperidin-1-yl)phenyl)amino)ethyl)amino)isoindoline-1,3-dione]	–	–	–	–	10 to 100	< 10	10 to 100	< 10
O=C1CCC(N2C(=O)c3ccc(N4CC(CCCCn5cc(-c6cnc7ccccc7n6)cn5)C4)cc3C2=O)C(=O)N1 (stereo not shown) [GS-367, 2-(2,6-Dioxopiperidin-3-yl)-5-(3-(4-(4-(quinoxalin-2-yl)-1H-pyrazol-1-yl)butyl)azetidin-1-yl)isoindoline-1,3-dione]	> 1000	> 1000	> 1000	> 1000	–	–	–	–
O=C1CCC(N2C(=O)c3ccc(NCCCc4cccc(N5CCC(n6cc(-c7cnc8ccccc8n7)cn6)CC5)c4)cc3C2=O)C(=O)N1 (stereo not shown) [GS-368, 2-(2,6-Dioxopiperidin-3-yl)-5-((3-(3-(4-(4-(quinoxalin-2-yl)-1H-pyrazol-1-yl)piperidin-1-yl)phenyl)propyl)amino)isoindoline-1,3-dione]	< 10	< 10	< 10	< 10	–	–	–	–
O=C1CCC(N2C(=O)c3ccc(C#CCCCCn4cc(-c5cnc6ccccc6n5)cn4)cc3C2=O)C(=O)N1 (stereo not shown) [GS-369, 2-(2,6-Dioxopiperidin-3-yl)-5-(6-(4-(quinoxalin-2-yl)-1H-pyrazol-1-yl)hex-1-yn-1-yl)isoindoline-1,3-dione]	> 1000	> 1000	> 1000	> 1000	–	–	–	–
